Measured values reported in ChEMBL document CHEMBL5375944, “Discovery of Potent Agonists for the Predominant Variant of the Orphan MAS-Related G Protein-Coupled Receptor X4 (MRGPRX4)” (J Med Chem, 2023).
Converted amounts (≈) assume the structure as drawn.

What was measured:
[1] = Agonist activity at MRGPRX4 83S in human LN229 glioblastoma cells assessed as change in intracellular calcium level by calcium mobilization assay; format: cell-based
[2] = Agonist activity at MRGPRX4 83S (unknown origin) expressed in CHO-K1 cells assessed as induction of beta-arrestin recruitment measured after 90 mins by luminescence assay; format: cell-based; settings: Homo sapiens, CHO-K1, 1.5 h
[3] = Agonist activity at MRGPRX4 83L (unknown origin) expressed in human 1321N1 glioblastoma cells assessed as change in intracellular calcium level by calcium mobilization assay; format: cell-based
[4] = Agonist activity at MRGPRX4 83L (unknown origin) expressed in CHO cells assessed as induction of beta-arrestin recruitment measured after 90 mins by luminescence assay; format: cell-based; settings: Homo sapiens, 1.5 h
[5] = Agonist activity at MRGPRX4 83L (unknown origin) expressed in HEK293 cells co-expressing Galpha15 assessed as change in intracellular calcium level by FLIPR assay; format: cell-based; settings: Homo sapiens
[6] = Agonist activity at MRGPRX4 83L (unknown origin) expressed in HEK293 cells co-expressing Gq assessed as change in intracellular calcium level by FLIPR assay; format: cell-based; settings: Homo sapiens
[7] = Agonist activity at MRGPRX4 83S (unknown origin) expressed in HEK293 cells co-expressing Gq assessed as change in intracellular calcium level by FLIPR assay; format: cell-based; settings: Homo sapiens
[8] = Agonist activity at MRGPRX4 83S in human LN229 glioblastoma cells assessed as change in intracellular calcium level at 10 uM by calcium mobilization assay relative to control
[9] = Agonist activity at MRGPRX4 83L (unknown origin) expressed in human 1321N1 glioblastoma cells assessed as change in intracellular calcium level 10 uM by calcium mobilization assay relative to control
[10] = molecular target: Mas-related G-protein coupled receptor member X1 (Homo sapiens, UniProt Q96LB2); test: Agonist activity at MRGPRX1 (unknown origin) by beta-arrestin recruitment assay
Mas-related G-protein coupled receptor member X1, sequence (Q96LB2 whole entry): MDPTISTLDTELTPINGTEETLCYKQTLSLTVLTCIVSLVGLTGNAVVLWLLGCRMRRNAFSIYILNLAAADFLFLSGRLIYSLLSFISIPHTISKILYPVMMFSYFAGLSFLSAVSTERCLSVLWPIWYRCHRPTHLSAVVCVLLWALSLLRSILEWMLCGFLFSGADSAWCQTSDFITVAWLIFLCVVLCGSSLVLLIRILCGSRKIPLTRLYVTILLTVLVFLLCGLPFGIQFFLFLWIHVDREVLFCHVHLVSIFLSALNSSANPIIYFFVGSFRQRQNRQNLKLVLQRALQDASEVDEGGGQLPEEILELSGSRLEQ

[11] = molecular target: Mas-related G-protein coupled receptor member X3 (Homo sapiens, UniProt Q96LB0); test: Agonist activity at MRGPRX3 (unknown origin) by beta-arrestin recruitment assay; format: functional
Mas-related G-protein coupled receptor member X3, sequence (Q96LB0 whole entry): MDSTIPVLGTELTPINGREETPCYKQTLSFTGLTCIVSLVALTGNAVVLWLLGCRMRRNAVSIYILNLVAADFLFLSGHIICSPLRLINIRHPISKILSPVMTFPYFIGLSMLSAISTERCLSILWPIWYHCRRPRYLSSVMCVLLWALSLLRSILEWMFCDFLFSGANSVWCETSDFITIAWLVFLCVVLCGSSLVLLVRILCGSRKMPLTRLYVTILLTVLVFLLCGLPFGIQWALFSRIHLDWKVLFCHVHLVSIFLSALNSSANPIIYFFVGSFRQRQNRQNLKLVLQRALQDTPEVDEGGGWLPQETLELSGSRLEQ

[12] = molecular target: G-protein coupled receptor 143 (Homo sapiens, UniProt P51810); test: Agonist activity at GPR143 (unknown origin) by beta-arrestin recruitment assay
G-protein coupled receptor 143, sequence (P51810 whole entry): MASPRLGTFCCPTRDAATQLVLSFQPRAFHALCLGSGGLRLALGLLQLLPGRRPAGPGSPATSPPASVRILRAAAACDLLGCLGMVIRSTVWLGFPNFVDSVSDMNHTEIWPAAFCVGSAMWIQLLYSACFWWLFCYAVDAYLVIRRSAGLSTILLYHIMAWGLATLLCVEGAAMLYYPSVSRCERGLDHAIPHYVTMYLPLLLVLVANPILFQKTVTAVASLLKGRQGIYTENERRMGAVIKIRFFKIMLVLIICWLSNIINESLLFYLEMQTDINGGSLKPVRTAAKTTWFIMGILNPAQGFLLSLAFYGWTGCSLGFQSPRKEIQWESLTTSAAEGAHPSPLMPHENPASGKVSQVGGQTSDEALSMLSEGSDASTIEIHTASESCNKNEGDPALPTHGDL

[13] = system: LN-229; test: Cytotoxicity against human LN-229 glioblastoma cells assessed as cell viability upto 30 uM measured after 3 days by MTT assay; format: toxicity, cell-based; settings: ln-229, 72 h, time 3 day
[14] = Kinetic solubility of compound in PBS at pH 7.4 incubated for 3 days; format: physicochemical; settings: time 3 day, read-out: Kinetic_solubility
[15] = Metabolic stability of the compound in human liver microsomes assessed as half life at 1 uM in presence of NADPH by LC-MS analysis; format: ADME, Microsome

Row | SMILES | EC50 [1] | EC50 [2] | EC50 [3] | EC50 [4] | further results
1 | C#CCn1c(=O)c2[nH]c(COc3ccccc3)nc2n(CCCCP(=O)(O)O)c1=O | > 10 µM | 1.85 µM | > 10 µM | > 10 µM | –
2 | C#CCn1c(=O)c2[nH]c([C@@H]3C[C@H]3c3ccccc3)nc2n(CCCCP(=O)(O)O)c1=O | > 10 µM | > 10 µM | > 10 µM | > 10 µM | –
3 | COc1cccc(CCc2nc3c([nH]2)c(=O)n(CC2CCC2)c(=O)n3CCCCP(=O)(O)O)c1 | 0.0599 µM | 0.0689 µM | 1.6 µM | > 10 µM | –
4 | C[C@H](CCC(=O)O)[C@H]1CC[C@H]2[C@@H]3[C@@H](O)C[C@@H]4C[C@H](O)CC[C@]4(C)[C@H]3CC[C@]12C [URSODIOL] | 47.5 µM | 3.27 µM | 41.1 µM | 33.8 µM | EC50 [5]: 4.93 µM
5 | CCn1c(=O)c2[nH]c(CCc3cccc(OC)c3)nc2n(CCCCP(=O)(O)O)c1=O | 0.214 µM | 1.19 µM | 3.8 µM | > 10 µM | –
6 | C[C@]12C[C@@H]3C[C@](C)(C1)C[C@@](C(=O)N[C@H](Cc1ccccc1)C(=O)O)(C3)C2 | 13.3 µM | 3.98 µM | 0.00656 µM | 0.548 µM | EC50 [6]: 0.149 µM; EC50 [7]: > 10 µM
7 | C#CCn1c(=O)c2c(nc(/C=C/c3cccc(OC)c3)n2C)n(CCCO)c1=O | > 10 µM | – | – | – | –
8 | C#CCn1c(=O)c2c(nc(-c3cccc(OC)c3)n2C)n(CCCOP(=O)(O)O)c1=O | > 10 µM | > 10 µM | > 10 µM | > 10 µM | –
9 | C[C@H](CCC(=O)NCCS(=O)(=O)O)[C@H]1CC[C@H]2[C@@H]3CC[C@@H]4C[C@H](O)CC[C@]4(C)[C@H]3C[C@H](O)[C@]12C [TAURODEOXYCHOLIC ACID] | > 10 µM | 54.5 µM | > 10 µM | 55.7 µM | EC50 [6]: 14.1 µM; Activity [8]: 6%; Activity [9]: 1%
10 | C#CCn1c(=O)c2[nH]c(C(C)Cc3ccccc3)nc2n(CCCCP(=O)(O)OCC)c1=O (configuration not stated) | > 10 µM | > 10 µM | > 10 µM | > 10 µM | –
11 | C#CCn1c(=O)c2[nH]c(CCc3cccc(OC)c3)nc2n(CCCCC(=O)O)c1=O | > 10 µM | 6.72 µM | > 10 µM | > 10 µM | –
12 | C#CCn1c(=O)c2[nH]c(C(C)Cc3ccccc3)nc2n(CCCCP(=O)(O)O)c1=O (configuration not stated) | 0.0345 µM | 0.0277 µM | 6.17 µM | 3.94 µM | –
13 | C#CCn1c(=O)c2[nH]c(CCc3cccc(OC)c3)nc2n(CCCCP(=O)(OCC)OCC)c1=O | > 10 µM | > 10 µM | > 10 µM | > 10 µM | –
14 | C#CCn1c(=O)c2[nH]c(CCc3ccccc3)nc2n(CCCCP(=O)(O)O)c1=O | 0.134 µM | 0.399 µM | 3.25 µM | > 10 µM | –
15 | C#CCn1c(=O)c2[nH]c(/C=C/c3cccc(OC)c3)nc2n(CCCCP(=O)(O)O)c1=O | 0.0116 µM | 0.2 µM | > 10 µM | > 10 µM | –
16 | C#CCn1c(=O)c2c(nc(/C=C/c3cccc(OC)c3)n2C)n(CCCOP(=O)(O)O)c1=O | – | – | – | – | EC50 [10]: > 10 µM; EC50 [11]: > 10 µM; EC50 [12]: > 10 µM
17 | CC(C)[C@H]1CC[C@H](C(=O)N[C@H](Cc2ccccc2)C(=O)O)CC1 [NATEGLINIDE] | > 10 µM | 28.4 µM | 0.198 µM | 4.09 µM | EC50 [6]: 4.72 µM; EC50 [7]: > 10 µM; Activity [8]: 0%
18 | C#CCn1c(=O)c2[nH]c(CCc3cccc(OC)c3)nc2n(CCCOC(C)=O)c1=O | > 10 µM | > 10 µM | > 10 µM | > 10 µM | –
19 | C#CCn1c(=O)c2c(nc(C#Cc3cccc(OC)c3)n2C)n(CCCOP(=O)(O)O)c1=O | > 10 µM | > 10 µM | > 10 µM | > 10 µM | –
20 | O=C(O)[C@@H](Cc1ccccc1)NC(=O)C12CC3CC(CC(C3)C1)C2 | > 10 µM | 64.1 µM | 0.126 µM | 6.7 µM | EC50 [6]: 0.581 µM; Activity [8]: 1%
21 | C#CCn1c(=O)c2[nH]c(CCc3cccc(OC)c3)nc2n(CCCO)c1=O | > 10 µM | > 10 µM | > 10 µM | > 10 µM | –
22 | C#CCn1c(=O)c2[nH]c(CCc3cccc(OC)c3)nc2n(CCCCP(=O)(O)O)c1=O | 0.0112 µM | 0.032 µM | 0.435 µM | 5.71 µM | Activity [13]: Non-Toxic; solubility kinetic at 72 h [14]: 218 µM (≈ 100 µg/mL); half-life at 1 µM [15]: > 4.5 h
23 | C[C@H](CCC(=O)O)[C@H]1CC[C@H]2[C@@H]3CC[C@@H]4C[C@H](O)CC[C@]4(C)[C@H]3C[C@H](O)[C@]12C [DEOXYCHOLIC ACID] | 169 µM | 1.68 µM | 11.2 µM | 24.6 µM | EC50 [5]: 2.6 µM
24 | C#CCn1c(=O)c2c(nc(CCc3cccc(OC)c3)n2C)n(CCCOP(=O)(O)O)c1=O | 0.238 µM | 0.374 µM | 0.574 µM | > 10 µM | –
25 | C#CCn1c(=O)c2[nH]c(CCc3cccc(OC)c3)nc2n(CCCCS(=O)(=O)O)c1=O | > 10 µM | > 10 µM | > 10 µM | > 10 µM | –
26 | C#CCn1c(=O)c2c(nc(CCc3cccc(OC)c3)n2C)n(CCCCP(=O)(O)O)c1=O | 0.0192 µM | 0.03 µM | 0.333 µM | 6.28 µM | Activity [13]: Non-Toxic; half-life at 1 µM [15]: > 16 h
